Experimental data: US20090297508A1, “Compositions and methods for treating hemostasis disorders associated with clec-2 signal transduction” (UNIVERSITY OF YAMANASHI, priority 2005, published 2009)

Tests used:
platelets = experiment: Whole cell tyrosine phosphorylation and functional responses of platelets stimulated by rhodocytin; assay type: cell-based; details: data not shown
CLEC-2 [1] = experiment: CLEC-2 tyrosine phosphorylation in human platelets (immunoprecipitation and western blotting); assay type: cell-based; details: for block of rhodocytin-induced tyrosine phosphorylation of CLEC-2: 30 μM inhibitor pretreatment, 50 nM rhodocytin; for tyrosine phosphorylation of CLEC-2: 50 μg/ml collagen or 100 μM SFLLRN, time course of up to 5 min
Method: (§1) Washed human platelets (1×10^9/ml) pretreated with 1 mM GRGDS (SEQ ID NO: 5) peptide or washed murine platelets (2×10^8/ml) pretreated with 10 μM lotrafiban to inhibit platelet aggregation were stimulated with 50 nM rhodocytin, 100 μM SFLLRN (SEQ ID NO: 6), or 50 μg/ml of collagen. […] Reactions were terminated by addition of 2× ice-cold lysis buffer. Platelet lysates were precleared and detergent-insoluble debris was clarified as described 17. A small aliquot was dissolved with SDS sample buffer for detection of total tyrosine phosphorylation. Antibodies against CLEC-2, PLCγ2, Syk, Btk, SLP-76, LAT, Vav1, or Vav3 were added to the resultant supernatant and incubated overnight. Where indicated, 10 μg of CLEC-2 YXXL-containing peptide plus avidin-Sepharose or GST-fusion protein-associated glutathione Sepharose were incubated with the lysates. […] The samples were lysed with 2× lysis buffer before and 5 min after stimulation. […] After removing insoluble debris by centrifugation, CLEC-2 was immunoprecipitated by addition of protein G. Precipitated proteins or whole cell lysates were separated by SDS-PAGE, electrotransferred, and western blotted by the indicated antibodies.

Syk = Syk (Homo sapiens, UniProt P43405); details: 10 μg peptide plus avidin-Sepharose, platelet lysates
Method: as §1

[2] = system: Syk, Btk, LAT, SLP-76, Vav1, Vav3, PLCγ2; experiment: Tyrosine phosphorylation of signaling proteins of the GPVI cascade in platelets; assay type: cell-based, human; details: PP2 present; not shown
CLEC-2 [3] = experiment: Precipitation of CLEC-2 from platelet lysates by GST fusion protein of tandem Syk SH2 domains; assay type: cell-based, human; details: 30 μM PP2 pretreatment, 50 nM rhodocytin
Method: (A) Washed murine platelets were stimulated with 50 nM rhodocytin for the indicated times. Whole cell lysates or immunoprecipitates with antibodies against PLCγ2, Vav1, or Vav3 were separated by SDS-PAGE and western blotted with the indicated antibodies. (B) Control or Syk-deficient platelets were stimulated with 30 nM rhodocytin and platelet aggregation was monitored using an aggregometer. (C) (i)(ii) Washed human platelets, pretreated with or without 30 μM PP2, were stimulated with 50 nM rhodocytin or 10 μg/ml of convulxin for the indicated times. Reactions were terminated by addition of an equal volume of 2× lysis buffer. […] The resultant supernatant was incubated with 40 μl of glutathione beads associated with GST fusion protein containing tandem Syk SH2 domains. Precipitated proteins were separated by SDS-PAGE and western blotted with an antibody to CLEC-2. (iii) CLEC-2 associated with 10 μg of CLEC-2 phospho-YXXL-containing peptide plus avidin-sepharose was detected by CLEC-2 antibody. The data are representative of 2-5 experiments.

For `Cc1ccc(-c2nn(C(C)(C)C)c3ncnc(N)c23)cc1` [PP1], the “block of tyrosine phosphorylation in whole cells and functional responses to rhodocytin” value (platelets) was “block tyrosine phosphorylation in whole cells and all functional responses”.
With `Nc1ncnc2c1cnn2-c1ccccc1` [PP3] the “block of rhodocytin-induced tyrosine phosphorylation of CLEC-2” value (CLEC-2 [1]) was “not”.
For collagen, the “tyrosine phosphorylation of CLEC-2” value (CLEC-2 [1]) was “does not undergo tyrosine phosphorylation”.
“Biotin-6-aminohexanoic acid (Ahx)-MQDEDGY(PO3H2)ITLNIK-OH” was tested, and the “interaction of Syk with CLEC-2 YXXL peptide” value (Syk) was “Syk could be precipitated”.
“Biotin-6-aminohexanoic acid (Ahx)-MQDEDGYITLNIK-OH [non-phosphorylated peptide]” was tested, and the “interaction of Syk with CLEC-2 YXXL peptide” value (Syk) was “no interaction”.
With Ser-Phe-Leu-Leu-Arg-Asn (SFLLRN) the “tyrosine phosphorylation of CLEC-2” value (CLEC-2 [1]) was “does not undergo tyrosine phosphorylation”.
For `CC(C)(C)n1nc(-c2ccc(Cl)cc2)c2c(N)ncnc21` [PP2], the “effect on rhodocytin-induced tyrosine phosphorylation of Syk, Btk, LAT, SLP-76, Vav1, Vav3, PLCγ2” value [2] was “abolished”, the “block of rhodocytin-induced tyrosine phosphorylation of CLEC-2” value (CLEC-2 [1]) was “block tyrosine phosphorylation of both the 32 and 40 kDa forms of CLEC-2” and the “block of tyrosine phosphorylation in whole cells and functional responses to rhodocytin” value (platelets) was “block tyrosine phosphorylation in whole cells and all functional responses”. The “effect on precipitation of CLEC-2 by Syk fusion protein from rhodocytin-stimulated platelets” value (CLEC-2 [3]) was “abolished”.
